Test system: liver MPS NASH model + TGFβ (PHH, KC and HSC co-cultures, high fat)
Experiment: Secreted cytokine profile of enhanced liver MPS NASH model with TGFβ dosed with OCA or ELF (Fig 6a)
Type: cell-based, human
Conditions: for IL-1RA production, fold change compared to control / IL-4 production, fold change compared to control / IL-6 production, fold change compared to control / IL-8 production, fold change compared to control / IP-10 production, fold change compared to control / MCP-1 production, fold change compared to control / MIP-1a production, fold change compared to control / MIP-1b production, fold change compared to control / VEGF production, fold change compared to control: vs NASH + TGFβ control
Source text: The systems biology approach identified TGFβ to be a key driver in creating a more advanced NASH phenotype in the MPS model, with enhanced fibrotic markers and reduced liver function. […] Therefore, we explored how effective pharmacological intervention would be for NASH microtissues with high NPC numbers supplemented with TGFβ and exposed them to varying concentrations of OCA and ELF QD as previously described (Supp. Fig. 6a). […] OCA had the greatest effect on IL-1Rα whereas ELF had the greatest effect on MCP-1 reflecting the fact that while both candidate drugs have anti-inflammatory properties, but their mechanisms of action are different. […] Finally, we used our quantitative fibrosis imaging assay to assess the effect of each candidate drug on collagen-1 deposition and α-SMA expression (Fig. 6c). […] Both candidate drugs caused a significant reduction in collagen-1 deposition and α-SMA expression, with the highest concentrations of OCA and ELF causing an 80% reduction in α-SMA expression and a 75% reduction in collagen-1 deposition (Fig. 6c).
Fig. 6 Using enhanced liver MPS NASH model with TGFβ, Obeticholic acid and Elafibranor modulate disease phenotype to a greater extent than in standard NASH model. PHH, KC and HSC co-cultures were cultured in the MPS platform under high-fat conditions and dosed with varying concentrations of Obeticholic acid (OCA) and Elafibranor (ELF) QD or vehicle control for 10 days, following an initial 4-day pre-culture phase. Throughout the compound dosing period TGFβ was also dosed onto all microtissues (NASH only vehicle control samples were also included in the study for comparison, which were not treated with TGFβ or dosed with any compound). a The secreted cytokine profile from treated liver microtissues was compared to determine the effects of each compound on the inflammatory profile of the liver with samples analysed at day 8 and 14 of the culture. Data were normalised by Z-transformation to allow comparison of all analytes (white = undetected). b The expression of fibrosis-associated biomarkers was analysed on day 14 media samples and compared to NASH + TGFβ control samples. c Liver microtissues were stained for collagen-type I, α-SMA, nuclei (DAPI), phalloidin (green) and imaged by confocal microscopy. Representative images are shown and scale bars 200 µm. Staining of microtissues was quantified by measuring total fluorescence intensity throughout individual microtissues, each data point represents an average of all microtissues per MPS culture (min 8, max 20). All datapoints shown with error bars highlighting means ± SD, all data from a minimum of three independent cultures: all comparisons were made to NASH + TGFβ control samples.
Cytokine profiles in cell culture medium samples were also analysed by Luminex array for determination of 38 analytes in total, consisting of cytokines, chemokines, and growth factors using the MILLIPLEX MAP Human Cytokine/Chemokine Magnetic Bead Panel - Premixed 38 Plex (Merck Millipore, USA).
Liver microtissues were cultured for 4 days in HEP-FAT medium, before dosing with obeticholic acid or elafibranor. Both compounds were dissolved in DMSO, diluted in cell culture medium (final DMSO concentration ≤1%) and added to microtissues during a full medium change every two days and in addition on the intervening days compounds were spiked into the media to increase drug concentration back to desired concentrations. Cultures were maintained in the presence of the compound, for a total of 10 days in the presence or absence of TGFβ.

CC[C@H]1[C@@H](O)[C@@H]2[C@H](CC[C@]3(C)[C@@H]([C@H](C)CCC(=O)O)CC[C@@H]23)[C@@]2(C)CC[C@@H](O)C[C@@H]12 [Obeticholic acid]
IL-1RA production, fold change compared to control (0.25 µM, Day 8): 1.08 fold change | IL-4 production, fold change compared to control (0.25 µM, Day 8): 1.009 fold change | IL-6 production, fold change compared to control (0.25 µM, Day 8): 1.014 fold change | IL-8 production, fold change compared to control (0.25 µM, Day 8): 1.005 fold change | IP-10 production, fold change compared to control (0.25 µM, Day 8): 1.251 fold change | MCP-1 production, fold change compared to control (0.25 µM, Day 8): 1.076 fold change | MIP-1a production, fold change compared to control (0.25 µM, Day 8): 0.8432 fold change | MIP-1b production, fold change compared to control (0.25 µM, Day 8): 0.7821 fold change | VEGF production, fold change compared to control (0.25 µM, Day 8): 1.067 fold change | IL-1RA production, fold change compared to control (0.25 µM, Day 14): 0.5028 fold change | IL-4 production, fold change compared to control (0.25 µM, Day 14): 0.8171 fold change | IL-6 production, fold change compared to control (0.25 µM, Day 14): 0.4566 fold change | IL-8 production, fold change compared to control (0.25 µM, Day 14): 0.6873 fold change | IP-10 production, fold change compared to control (0.25 µM, Day 14): 1.095 fold change | MCP-1 production, fold change compared to control (0.25 µM, Day 14): 0.7086 fold change | MIP-1a production, fold change compared to control (0.25 µM, Day 14): 0.8386 fold change | VEGF production, fold change compared to control (0.25 µM, Day 14): 1.001 fold change | IL-1RA production, fold change compared to control (5 µM, Day 8): 0.6972 fold change | IL-4 production, fold change compared to control (5 µM, Day 8): 1.1399 fold change | IL-6 production, fold change compared to control (5 µM, Day 8): 1.2962 fold change | IL-8 production, fold change compared to control (5 µM, Day 8): 1.283 fold change | IP-10 production, fold change compared to control (5 µM, Day 8): 1.04 fold change | MCP-1 production, fold change compared to control (5 µM, Day 8): 0.9329 fold change | MIP-1a production, fold change compared to control (5 µM, Day 8): 0.9021 fold change | MIP-1b production, fold change compared to control (5 µM, Day 8): 0.7383 fold change | VEGF production, fold change compared to control (5 µM, Day 8): 1.4206 fold change | IL-1RA production, fold change compared to control (5 µM, Day 14): 0.2072 fold change | IL-4 production, fold change compared to control (5 µM, Day 14): 1.048 fold change | IL-6 production, fold change compared to control (5 µM, Day 14): 0.937 fold change | IL-8 production, fold change compared to control (5 µM, Day 14): 0.8309 fold change | IP-10 production, fold change compared to control (5 µM, Day 14): 1.661 fold change | MCP-1 production, fold change compared to control (5 µM, Day 14): 0.6601 fold change | MIP-1a production, fold change compared to control (5 µM, Day 14): 1.231 fold change | MIP-1b production, fold change compared to control (5 µM, Day 14): 1.514 fold change | VEGF production, fold change compared to control (5 µM, Day 14): 2.374 fold change | IL-1RA production, fold change compared to control (12.5 µM, Day 8): 0.3318 fold change | IL-4 production, fold change compared to control (12.5 µM, Day 8): 0.7385 fold change | IL-6 production, fold change compared to control (12.5 µM, Day 8): 0.7346 fold change | IL-8 production, fold change compared to control (12.5 µM, Day 8): 0.6207 fold change | IP-10 production, fold change compared to control (12.5 µM, Day 8): 1.145 fold change | MCP-1 production, fold change compared to control (12.5 µM, Day 8): 0.4485 fold change | MIP-1a production, fold change compared to control (12.5 µM, Day 8): 1.263 fold change | MIP-1b production, fold change compared to control (12.5 µM, Day 8): 1.247 fold change | VEGF production, fold change compared to control (12.5 µM, Day 8): 1.208 fold change | IL-1RA production, fold change compared to control (12.5 µM, Day 14): 0.02359 fold change | IL-4 production, fold change compared to control (12.5 µM, Day 14): 0.2784 fold change | IL-6 production, fold change compared to control (12.5 µM, Day 14): 0.3766 fold change | IL-8 production, fold change compared to control (12.5 µM, Day 14): 0.4421 fold change | IP-10 production, fold change compared to control (12.5 µM, Day 14): 0.932 fold change | MCP-1 production, fold change compared to control (12.5 µM, Day 14): 0.2604 fold change | MIP-1a production, fold change compared to control (12.5 µM, Day 14): 1.011 fold change | MIP-1b production, fold change compared to control (12.5 µM, Day 14): 1.454 fold change | VEGF production, fold change compared to control (12.5 µM, Day 14): 0.8682 fold change | cytokine on which the drug had the greatest effect (NASH microtissues, high NPC, + TGFβ): IL-1Rα

From paper PMC8443589, “Modelling human liver fibrosis in the context of non-alcoholic steatohepatitis using a microphysiological system” (Communications Biology, 2021)
